The source of these data is US6310273A, “Inhibiting apoptosis in plants using a baculovirus p35 protease inhibitor gene” (The Regents of the University of California, priority 1999, dated 2001).

Peptide text beside a SMILES is read from it.

In experiment [1] the target is T1, caspase-3 (CPP32, apopain, Yama) (Homo sapiens, UniProt P42574).
T1 construct: purchased BIOMOL Research Laboratories, Inc. AK-700
T1 sequence (P42574 29-175 limits assumed): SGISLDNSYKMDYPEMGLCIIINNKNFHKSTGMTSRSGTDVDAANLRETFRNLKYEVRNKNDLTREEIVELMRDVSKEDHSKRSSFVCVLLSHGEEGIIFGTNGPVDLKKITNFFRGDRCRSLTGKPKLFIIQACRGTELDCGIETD
T1 sequence (P42574 176-277 limits assumed): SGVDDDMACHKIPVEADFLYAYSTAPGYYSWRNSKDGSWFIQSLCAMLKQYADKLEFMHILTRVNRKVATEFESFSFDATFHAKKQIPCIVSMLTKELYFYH
The conditions noted are these: 0.1 uM inhibitor; 100 ul reaction, 30 units caspase-3, 0.2 mM DEVD-p-nitroanilide; cited from earlier work.

The subject of experiment [2] is Pseudomonas syringae pv. phaseolicola in tobacco leaves. Put plainly: Leaf infiltration of bacteria with peptide inhibitor, cell death. The format is in vivo. The conditions noted are these: incompatible interaction (non-host hypersensitive response); inhibitor syringe-infiltrated with bacteria into leaf.
For experiment [3], the system named is Pseudomonas syringae pv. phaseolicola in bean leaves. The experiment is described as above. The class given is in vivo. The conditions noted are these: compatible interaction; inhibitor syringe-infiltrated with bacteria into leaf. The method, then: (§1) A leaf of the susceptible plant of interest is syringe or vacuum infiltrated with a concentration of virulent bacteria sufficient to cause disease and tissue death. A portion of the same leaf or another leaf on the same plant of similar position and age is infiltrated with bacteria and the tetrapeptide inhibitor. Usually a 0.5 mM concentration of inhibitor is sufficient to inhibit disease but may vary according to pathogen and host plant. Disease is permitted to develop under conditions suitable for the plant/pathogen combination. Symptoms are viewed over the course of the experiment to assess the level of symptom (death) inhibition by the caspase inhibitor compared to the control. The affect of the caspase inhibitor on bacterial growth can be assayed by taking samples of the tissue and performing growth curves of the pathogen as described in the literature.
(§2) Host plant leaves are infiltrated with bacteria at a suitable concentration (10^4 -10^8 colony forming units per ml) to cause disease. Leaves of the same age and position on the same or a different plant are infiltrated with bacteria of the same concentration with the desired peptide inhibitor added. All solutions are infiltrated directly into the plant leaf lamina with a syringe. Disease symptoms in the form of dead areas of cells are quantified by time lapse color image capture and lesion area measurements determined by digital image analysis. Samples of the control tissue and inhibitor treated tissues are analyzed on a time course basis for bacterial growth rate.
(§3) Pathogen growth is measured by grinding leaf disc samples in a suitable buffer followed by serial dilutions and plating of samples onto agar plates to determine the relative number of colonies produced. Colony counts are then related back to the original undiluted samples. Growth values are reported as means of several samples with appropriate statistical measures of mean separation. Differential effects of the inhibitors thus are measured both in terms of the amount of apoptotic cell death induced (symptoms) and by the effect of altering cell death induction on the amount of pathogen growth in the tissue.

The test system of experiment [4] is Pseudomonas syringae pv. syringae in tomato leaves. Described as above. The format is in vivo. The conditions noted are these: compatible interaction; inhibitor syringe-infiltrated with bacteria into leaf. As for the experimental part: as §1, §2, §3
The test system of experiment [5] is Pseudomonas syringae pv. tomato in tomato leaves. Described as above. The format is in vivo. The conditions noted are these: compatible interaction; inhibitor syringe-infiltrated with bacteria into leaf. The method, then: as §1, §2, §3
Experiment [6] concerns Xanthamonas campestris pv tomato in tomato leaves. The description is as above. The format is in vivo. The conditions noted are these: compatible interaction; inhibitor syringe-infiltrated with bacteria into leaf. The method, then: as §1, §2, §3
Experiment [7] has as its system Pseudomonas syringae pv. angulata in tobacco leaves. The experiment is described as above. The conditions noted are these: compatible interaction; inhibitor syringe-infiltrated with bacteria into leaf. The format is in vivo. As for the experimental part:
as §1, §2, §3

In experiment [8] the test system is Pseudomonas syringae pv. tabaci in tobacco leaves. The description is as above. The class given is in vivo. The conditions noted are these: compatible interaction; inhibitor syringe-infiltrated with bacteria into leaf. The method, then: as §1, §2, §3
The subject of experiment [9] is Pseudomonas syringae pv. tomato (avrPto) in tomato (Pto/Pto) leaves. The description is as above. The format is in vivo. The conditions noted are these: incompatible interaction (host specific gene for gene hypersensitive response); inhibitor syringe-infiltrated with bacteria into leaf.
The subject of a further experiment is tobacco. As to the kind of experiment: Blocking of apoptotic death or disease in tobacco. The class given is in vivo.
In a further experiment the test system is bean. As to the kind of experiment: Blocking of apoptotic death or disease in bean. The format is in vivo.

Turning to `CC(=O)N[C@@H](CC(=O)O)C(=O)N[C@@H](CCC(=O)O)C(=O)N[C@H](C(=O)N[C@H](C=O)CC(=O)O)C(C)C` [Ac-DEVD-CHO], in [1], the “blocking of caspase-3 activity” value is “completely blocked”. Besides, the “blocking of cell death” value in [2], in experiment [3], in experiment [4], in [5], in [6] and in experiment [7] was “blocks cell death” in each case. Moreover, the “blocking of cell death” value in experiment [8] and in experiment [9] was “blocks cell death” in each case.
Regarding `CSCC[C@H](NC(=O)[C@H](CC(=O)O)NC(C)=O)C(=O)N[C@@H](CCC(N)=O)C(=O)N[C@H](C=O)CC(=O)O` [Ac-DMQD-CHO] (Ac-DMQD-aldehyde), the “blocking of cell death” value in experiment [2], in [5] and in experiment [8] was “blocks cell death” throughout.
`CC(=O)N[C@@H](Cc1ccc(O)cc1)C(=O)N[C@H](C(=O)N[C@@H](C)C(=O)N[C@H](C=O)CC(=O)O)C(C)C` [Ac-YVAD-CHO]: the “blocking of cell death” value in experiment [2], in experiment [5] and in [8] was “blocks cell death but less well than others” in each case.
`CC(=O)N[C@@H](CC(C)C)C(=O)N[C@@H](CC(C)C)C(=O)N[C@H](C=O)CCCNC(=N)N` [leupeptin]: the “blocking apoptotic death or disease” value with tobacco and in the experiment with bean was “not effective” in each case.
As to Ac-DQMD-aldehyde, the “blocking of cell death” value in experiment [9] is reported as “blocks cell death”.
For Ac-Leu-Arg-Arg-aldehyde, the “blocking of cell death” value in [8] is “does not block cell death”.
